We go through ten compounds from PubChem BioAssay (NCI).

Test systems include EKVX NSCLC; SK-MEL-5 melanoma; 786-0 renal; SK-OV-3 ovarian; SF-539 CNS; HCC-2998 colon; A549 NSCLC; HL-60(TB) leukemia; COLO 205 colon; CCRF-CEM leukemia; HCT-15 colon; TK-10 renal; CAKI-1 renal; NCI-H460 lung; A498 renal.
Experiment in all cases: DTP human tumour cell line panel, 48 h

SMILES strings stand for the structures.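 Test compounds were applied to cells in 96-well plates for 48 hours at 5 doses. TGI: concentration producing complete growth inhibition.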 Where only a bound is given, the exact number is not on record here.

As to `Cn1c2ccccc2c2ccc3c(c21)C(=O)C(c1ccccc1)=CC3=O`, the concentration for total growth inhibition (TGI) with EKVX NSCLC was 75.2 µM; with SK-MEL-5 melanoma it was 87.5 µM; in the experiment on 786-0 renal it was 32.8 µM; with SK-OV-3 ovarian it was more than 100 µM; in the experiment on SF-539 CNS it was 47.2 µM; in the experiment with HCC-2998 colon, 56.4 µM. The TGI in the experiment on A549 NSCLC was more than 100 µM; in the experiment with HL-60(TB) leukemia, more than 100 µM; in the experiment on COLO 205 colon it was more than 100 µM; with CCRF-CEM leukemia, more than 100 µM; in the experiment with HCT-15 colon it was 22.2 µM; with TK-10 renal, more than 100 µM. The TGI in the experiment on CAKI-1 renal and in the experiment on NCI-H460 lung was more than 100 µM each time.
Take `CC(C)(C)[C@H]1CO[C@]2(c3ccccc3)[C@@H]3C[C@@H]3C(=O)N12`: the TGI in the experiment with EKVX NSCLC, in the experiment with SK-MEL-5 melanoma, in the experiment with 786-0 renal, in the experiment with SK-OV-3 ovarian, in the experiment with SF-539 CNS and in the experiment with HCC-2998 colon was more than 100 µM each time. Besides, the TGI in the experiment with A549 NSCLC, with HL-60(TB) leukemia, in the experiment with COLO 205 colon, with HCT-15 colon, in the experiment on TK-10 renal and with CAKI-1 renal was more than 100 µM throughout. In the experiment with NCI-H460 lung, this compound yielded a TGI of more than 100 µM.
As to `COC(=O)CC(C(C(=O)OC)C(=O)OC)N1C(=O)OC(c2ccccc2)C1c1ccccc1` (stereo not drawn), the TGI in the experiment with A498 renal, in the experiment on EKVX NSCLC, in the experiment on SK-MEL-5 melanoma, with 786-0 renal, with SK-OV-3 ovarian and in the experiment on SF-539 CNS was more than 100 µM throughout. Also, the TGI in the experiment with HCC-2998 colon was 93.1 µM; in the experiment on A549 NSCLC, more than 100 µM; with HL-60(TB) leukemia, more than 100 µM; with COLO 205 colon, more than 100 µM; in the experiment with CCRF-CEM leukemia, more than 100 µM; in the experiment with HCT-15 colon it was more than 100 µM. For the same compound, the results for the TGI in the experiment on TK-10 renal, in the experiment on CAKI-1 renal and with NCI-H460 lung were more than 100 µM, 39 µM and more than 100 µM, respectively.
`CC1(C)c2ccccc2N2O[C@@H]3C(=O)N(c4ccccc4)C(=O)[C@@H]3C21c1ccccc1` (stereo partly drawn): the TGI in the experiment with EKVX NSCLC, in the experiment with SK-MEL-5 melanoma, with 786-0 renal, with SK-OV-3 ovarian, in the experiment with SF-539 CNS and in the experiment on HCC-2998 colon was more than 100 µM throughout. In addition, the concentration for total growth inhibition (TGI) in the experiment on A549 NSCLC, in the experiment with HL-60(TB) leukemia, in the experiment with COLO 205 colon, in the experiment with CCRF-CEM leukemia, in the experiment on HCT-15 colon and with TK-10 renal was more than 100 µM throughout. The TGI with CAKI-1 renal was more than 100 µM.
With `CC1(C)Cc2c(oc3ncnc(N)c23)CS1`, the concentration for total growth inhibition (TGI) with EKVX NSCLC, in the experiment with SK-MEL-5 melanoma, with 786-0 renal, in the experiment with SK-OV-3 ovarian, with SF-539 CNS and with HCC-2998 colon was more than 100 µM throughout. The TGI with A549 NSCLC, in the experiment on COLO 205 colon, in the experiment with CCRF-CEM leukemia, with HCT-15 colon, with CAKI-1 renal and in the experiment on NCI-H460 lung was more than 100 µM throughout.
`Nc1nc(N)c2ncn(CCOC(c3ccccc3)P(=O)(O)O)c2n1` (stereo not drawn): the TGI in the experiment with A498 renal, in the experiment with EKVX NSCLC, in the experiment on SK-MEL-5 melanoma, in the experiment on 786-0 renal, in the experiment with SK-OV-3 ovarian and in the experiment on SF-539 CNS was more than 100 µM each time. For the same compound, the TGI in the experiment on HCC-2998 colon, with A549 NSCLC, in the experiment with HL-60(TB) leukemia, in the experiment with COLO 205 colon, in the experiment with CCRF-CEM leukemia and with HCT-15 colon was more than 100 µM throughout. Besides, the TGI in the experiment on TK-10 renal, with CAKI-1 renal and with NCI-H460 lung was more than 100 µM each time.
For `ClCC[N-]CC[N-]CCCl.ClCC[N-]CC[N-]CCCl.[O-][Cl+3]([O-])([O-])O.[Zn+2]`, the TGI in the experiment on A498 renal was more than 100 µM; in the experiment on EKVX NSCLC, more than 100 µM; with SK-MEL-5 melanoma, 56.1 µM; in the experiment with 786-0 renal, 39.1 µM; with SK-OV-3 ovarian, more than 100 µM; in the experiment with SF-539 CNS it was more than 67.8 µM. Besides, the TGI in the experiment on HCC-2998 colon was more than 100 µM; with A549 NSCLC, more than 100 µM; with HL-60(TB) leukemia, more than 100 µM; with COLO 205 colon, more than 72.2 µM; in the experiment with CCRF-CEM leukemia, 82.3 µM; in the experiment with HCT-15 colon, more than 100 µM. Besides, the TGI is more than 71.1 µM in the experiment on TK-10 renal, 39.7 µM with CAKI-1 renal and more than 71.2 µM in the experiment with NCI-H460 lung.
In the case of `Cc1c2ccncc2c(C)c2c1[nH]c1ccc(Oc3ccccc3)cc12`, the TGI in the experiment on A498 renal is 11.4 µM; in the experiment with EKVX NSCLC, more than 100 µM; in the experiment on SK-MEL-5 melanoma it was 9.46 µM; with 786-0 renal, 3.24 µM; in the experiment with SK-OV-3 ovarian it was 15.9 µM; in the experiment with SF-539 CNS, 3.13 µM. Further, the TGI in the experiment on HCC-2998 colon was 3.18 µM; in the experiment with A549 NSCLC, 4.8 µM; in the experiment on HL-60(TB) leukemia, 5.88 µM; in the experiment on CCRF-CEM leukemia, 9.41 µM; in the experiment on TK-10 renal, 22.9 µM; in the experiment with CAKI-1 renal, more than 100 µM.
Consider `CC(C)OC/N=C(/N)NC#N`, for which the TGI in the experiment on A498 renal, with EKVX NSCLC, with SK-MEL-5 melanoma, in the experiment with 786-0 renal, in the experiment on SK-OV-3 ovarian and in the experiment with SF-539 CNS was more than 100 µM in each case. Besides, the TGI in the experiment with HCC-2998 colon was more than 100 µM; with A549 NSCLC, more than 100 µM; in the experiment on HL-60(TB) leukemia it was more than 100 µM; in the experiment on COLO 205 colon it was more than 100 µM; in the experiment on HCT-15 colon, 33.7 µM; in the experiment on TK-10 renal, more than 100 µM. The TGI in the experiment on CAKI-1 renal and in the experiment on NCI-H460 lung was more than 100 µM throughout.
Consider `COc1cc2c(oc(=O)c3cc4cc([Si](C)(C)C)oc4c(OC)c32)c2cccc(O)c12`, for which the TGI in the experiment with A498 renal, with EKVX NSCLC, in the experiment on SK-MEL-5 melanoma, in the experiment on 786-0 renal, in the experiment on SK-OV-3 ovarian and with SF-539 CNS was more than 100 µM throughout. In addition, the TGI in the experiment on HCC-2998 colon, in the experiment with A549 NSCLC, in the experiment with HL-60(TB) leukemia, in the experiment with COLO 205 colon, in the experiment with CCRF-CEM leukemia and in the experiment with HCT-15 colon was more than 100 µM in each case. Further, the TGI with TK-10 renal, with CAKI-1 renal and in the experiment with NCI-H460 lung was more than 100 µM each time.
